Data on 6 compounds can be found in patent US5840684A, “Glycopeptide antibiotic derivatives” (Eli Lilly and Company, priority 1995, dated 1998).

Molecules are shown by their SMILES. Converted amounts (≈) assume the structure as drawn.

The test system of test [1] is Staphylococcus aureus S13E. Type of test: cell-based. The protocol:
(§1) The MIC's were determined using a standard broth micro-dilution assay.

The subject of test [2] is Staphylococcus aureus SA1199B. The class given is cell-based. The protocol:
as §1

The subject of test [3] is vancomycin-susceptible enterococci. Kind of test: broth micro-dilution, mean geometric MIC. The conditions noted are these: enterococci, 24-hour incubation. Type of test: cell-based, Enterococcus faecium and Enterococcus faecalis. Background: Dilution methods test growth across graded concentrations, often in twofold steps.
Test [4] relates to Haemophilus influenzae RD. Kind of test: broth micro-dilution MIC. Type of test: cell-based. The conditions noted are these: Haemophilus influenzae RD. The protocol: (§2) The formula I compounds have in vitro and in vivo activity against Gram-positive pathogenic bacteria. The MIC's were determined using a standard broth micro-dilution assay.
Test [5] has as its system Staphylococcus haemolyticus 105. Nature of the test: broth micro-dilution MIC. The class given is cell-based. The procedure: as §2
Test [6] relates to Streptococcus pneumoniae P1. Kind of test: broth micro-dilution MIC. Type of test: cell-based. The protocol:
as §2

The subject of test [7] is Enterococcus gallinarum 245. Kind of test: broth micro-dilution MIC. The class given is cell-based. The conditions noted are these: Enterococcus gallinarum 245. The protocol:
as §2

Test [8] deals with Staphylococcus haemolyticus 415. Nature of the test: broth micro-dilution MIC. Type of test: cell-based. The protocol: as §2
Test [9] concerns Entercoccus faecium 2041. Kind of test: broth micro-dilution MIC. Type of test: cell-based. The conditions noted are these: Entercoccus faecium 2041. The procedure:
as §2

Test [10] concerns Entercoccus faecium 180. Kind of test: broth micro-dilution MIC. Type of test: cell-based. The conditions noted are these: Entercoccus faecium 180. The protocol:
as §2

Test [11] relates to Staphylococcus epidermidis 270. Nature of the test: broth micro-dilution MIC. Type of test: cell-based. The procedure: as §2
Test [12] deals with Staphylococcus aureus 446. Kind of test: broth micro-dilution MIC. The class given is cell-based. The procedure:
as §1

The test system of test [13] is Staphylococcus aureus 491. Nature of the test: broth micro-dilution MIC. The class given is cell-based. The procedure: as §1
The test system of test [14] is Staphylococcus aureus SA1199A. Kind of test: broth micro-dilution MIC. The class given is cell-based. The procedure:
as §1

Test [15] has as its system Entercoccus faecium 276. Kind of test: broth micro-dilution MIC. Type of test: cell-based. The procedure: as §1
In test [16] the test system is Staphylococcus aureus SA1199. Kind of test: broth micro-dilution MIC. The class given is cell-based. The protocol: as §1
For test [17], the system named is Streptococcus pyogenes C203. Nature of the test: broth micro-dilution MIC. Type of test: cell-based. The protocol:
as §1

Test [18] has as its system Entercoccus faecium 180-1. Kind of test: broth micro-dilution MIC. Type of test: cell-based. The procedure:
as §1

The test system of test [19] is Staphylococcus aureus 447. Nature of the test: broth micro-dilution MIC. The class given is cell-based. The protocol: as §1
The test system of test [20] is vancomycin-resistant enterococci. Nature of the test: broth micro-dilution, mean geometric MIC. The conditions noted are these: enterococci, 24-hour incubation. The class given is cell-based, Enterococcus faecium and Enterococcus faecalis.
Test [21] relates to Staphylococcus aureus X778. Nature of the test: broth micro-dilution MIC. Type of test: cell-based. The protocol: as §1
Test [22] relates to Staphylococcus aureus 489. Nature of the test: broth micro-dilution MIC. Type of test: cell-based. The protocol:
as §1

The subject of test [23] is Staphylococcus aureus X400. Kind of test: broth micro-dilution MIC. The class given is cell-based. The procedure:
as §1

On to `CNC(CC(C)C)C(=O)NC1C(=O)NC(CC(N)=O)C(=O)NC2C(=O)NC3C(=O)NC(C(=O)NC(C(=O)O)c4cc(O)cc(O)c4-c4cc3ccc4O)C(OC3CC(C)(N)C(O)C(C)O3)c3ccc(c(Cl)c3)Oc3cc2cc(c3OC2OC(CO)C(O)C(O)C2OC2CC(C)(NCc3cc4ccccc4s3)C(O)C(C)O2)Oc2ccc(cc2Cl)C1O` (stereo not shown) [Compound 19], for which the MIC is at most 0.06 mg/L in test [1]; 1 mg/L (≈ 0.575 µM) in test [2]; 32 mg/L (≈ 18.4 µM) in [4]; 4 mg/L (≈ 2.3 µM) in test [5]; at most 0.06 mg/L in test [6]; at most 0.06 mg/L in test [7]. Further, the MIC in [8] is 8 mg/L (≈ 4.6 µM); in [9] it was at most 0.06 mg/L; in test [10] it was 1 mg/L (≈ 0.575 µM); in [11], 2 mg/L (≈ 1.15 µM); in [12], 0.5 mg/L (≈ 0.288 µM); in test [13], 2 mg/L (≈ 1.15 µM). Also, the MIC in test [14] is at most 0.06 mg/L; in test [15] it was at most 0.06 mg/L; in test [16], 0.5 mg/L (≈ 0.288 µM); in test [17], at most 0.06 mg/L; in test [18], at most 0.06 mg/L; in test [19] it was 1 mg/L (≈ 0.575 µM). In addition, the “mean geometric MIC, Vancomycin Sensitive Strains” value in test [3] stood at 0.22 mg/L.

As for `CNC(CC(C)C)C(=O)NC1C(=O)NC(CC(N)=O)C(=O)NC2C(=O)NC3C(=O)NC(C(=O)NC(C(=O)O)c4cc(O)cc(O)c4-c4cc3ccc4O)C(OC3CC(C)(N)C(O)C(C)O3)c3ccc(c(Cl)c3)Oc3cc2cc(c3OC2OC(CO)C(O)C(O)C2OC2CC(C)(NCc3ccc(C#Cc4ccccc4)cc3)C(O)C(C)O2)Oc2ccc(cc2Cl)C1O` (stereo not shown) [Compound 79], the MIC in [1] is 4 mg/L (≈ 2.24 µM); in test [2], 1 mg/L (≈ 0.561 µM); in test [4], 16 mg/L (≈ 8.98 µM); in test [5], 4 mg/L (≈ 2.24 µM); in [6] it was at most 0.06 mg/L; in test [7], at most 0.06 mg/L. For the same compound, the MIC is 4 mg/L (≈ 2.24 µM) in test [8]; at most 0.06 mg/L in test [9]; at most 0.06 mg/L in test [10]; 0.5 mg/L (≈ 0.28 µM) in test [11]; 2 mg/L (≈ 1.12 µM) in [21]; 2 mg/L (≈ 1.12 µM) in [12]. Besides, the MIC is 4 mg/L (≈ 2.24 µM) in test [13]; at most 0.06 mg/L in [15]; 1 mg/L (≈ 0.561 µM) in [16]; 2 mg/L (≈ 1.12 µM) in [22]; at most 0.06 mg/L in test [17]; at most 0.06 mg/L in [18]. This compound also had an MIC in test [19] of 2 mg/L (≈ 1.12 µM). In addition, the “mean geometric MIC, Vancomycin Sensitive Strains” value in [3] was 0.042 mg/L. Besides, the “mean geometric MIC, Vancomycin Resistant Strains” value in test [20] was 0.84 mg/L.

Take `CNC(CC(C)C)C(=O)NC1C(=O)NC(CC(N)=O)C(=O)NC2C(=O)NC3C(=O)NC(C(=O)NC(C(=O)O)c4cc(O)cc(O)c4-c4cc3ccc4O)C(OC3CC(C)(N)C(O)C(C)O3)c3ccc(c(Cl)c3)Oc3cc2cc(c3OC2OC(CO)C(O)C(O)C2OC2CC(C)(NCCCc3ccc(OC)cc3)C(O)C(C)O2)Oc2ccc(cc2Cl)C1O` (stereo not shown) [Compound 175]: the MIC in [2] is at most 0.06 mg/L; in test [4] it was 16 mg/L (≈ 9.19 µM); in [5] it was 2 mg/L (≈ 1.15 µM); in test [6], 0.5 mg/L (≈ 0.287 µM); in [7], 4 mg/L (≈ 2.3 µM); in [8] it was 4 mg/L (≈ 2.3 µM). In addition, the MIC in [9] was at most 0.06 mg/L; in test [10] it was 1 mg/L (≈ 0.574 µM); in test [11], 0.5 mg/L (≈ 0.287 µM); in [21], 0.5 mg/L (≈ 0.287 µM); in test [12] it was 1 mg/L (≈ 0.574 µM); in test [13] it was 0.5 mg/L (≈ 0.287 µM). Also, the MIC is 0.5 mg/L (≈ 0.287 µM) in [14]; at most 0.06 mg/L in test [15]; at most 0.06 mg/L in [16]; 0.5 mg/L (≈ 0.287 µM) in [17]; at most 0.06 mg/L in test [18]; 1 mg/L (≈ 0.574 µM) in test [19]. For the same compound, the “mean geometric MIC, Vancomycin Sensitive Strains” value in test [3] came out at 0.22 mg/L. For the same compound, in test [20], the “mean geometric MIC, Vancomycin Resistant Strains” value stood at 9.5 mg/L.

For `CNC(CC(C)C)C(=O)NC1C(=O)NC(CC(N)=O)C(=O)NC2C(=O)NC3C(=O)NC(C(=O)NC(C(=O)O)c4cc(O)cc(O)c4-c4cc3ccc4O)C(OC3CC(C)(N)C(O)C(C)O3)c3ccc(c(Cl)c3)Oc3cc2cc(c3OC2OC(CO)C(O)C(O)C2OC2CC(C)(NCc3ccc4cc(C)ccc4c3)C(O)C(C)O2)Oc2ccc(cc2Cl)C1O` (stereo not shown) [Compound 189], the MIC in test [1] was 0.5 mg/L (≈ 0.286 µM); in test [2], 1 mg/L (≈ 0.573 µM); in test [4] it was 32 mg/L (≈ 18.3 µM); in [5] it was 1 mg/L (≈ 0.573 µM); in test [6] it was at most 0.06 mg/L; in [7], 1 mg/L (≈ 0.573 µM). For the same compound, the MIC in [8] is 1 mg/L (≈ 0.573 µM); in [9] it was at most 0.06 mg/L; in test [12], 0.5 mg/L (≈ 0.286 µM); in test [13], at most 0.06 mg/L; in [14] it was at most 0.06 mg/L; in test [16] it was 0.5 mg/L (≈ 0.286 µM). The MIC in test [22] was 1 mg/L (≈ 0.573 µM); in test [17] it was at most 0.06 mg/L; in test [18], at most 0.06 mg/L; in test [19], 0.5 mg/L (≈ 0.286 µM). The “mean geometric MIC, Vancomycin Sensitive Strains” value in test [3] came to 0.10 mg/L. Also, in test [20], the “mean geometric MIC, Vancomycin Resistant Strains” value is 2.4 mg/L.

For `CNC(CC(C)C)C(=O)NC1C(=O)NC(CC(N)=O)C(=O)NC2C(=O)NC3C(=O)NC(C(=O)NC(C(=O)O)c4cc(O)cc(O)c4-c4cc3ccc4O)C(OC3CC(C)(N)C(O)C(C)O3)c3ccc(c(Cl)c3)Oc3cc2cc(c3OC2OC(CO)C(O)C(O)C2OC2CC(C)(NCCCC3CCCC3)C(O)C(C)O2)Oc2ccc(cc2Cl)C1O` (stereo not shown) [Compound 208], the MIC in test [2] is 0.5 mg/L (≈ 0.294 µM); in [4] it was 32 mg/L (≈ 18.8 µM); in test [6], at most 0.06 mg/L; in [7], 2 mg/L (≈ 1.17 µM); in [8], 2 mg/L (≈ 1.17 µM); in test [9], at most 0.06 mg/L. Also, the MIC in test [11] was 0.5 mg/L (≈ 0.294 µM); in [12], 1 mg/L (≈ 0.587 µM); in [13], 0.5 mg/L (≈ 0.294 µM); in [14], at most 0.06 mg/L; in test [16], 0.5 mg/L (≈ 0.294 µM); in test [22], 0.5 mg/L (≈ 0.294 µM). For the same compound, the results for the MIC in [17], in test [18] and in test [19] were at most 0.06 mg/L, at most 0.06 mg/L and 1 mg/L (≈ 0.587 µM), respectively. In addition, the “mean geometric MIC, Vancomycin Sensitive Strains” value in test [3] turned out to be 0.17 mg/L. In [20], the “mean geometric MIC, Vancomycin Resistant Strains” value was found to be 2.8 mg/L.

Consider `CNC(CC(C)C)C(=O)NC1C(=O)NC(CC(N)=O)C(=O)NC2C(=O)NC3C(=O)NC(C(=O)NC(C(=O)O)c4cc(O)cc(O)c4-c4cc3ccc4O)C(OC3CC(C)(N)C(O)C(C)O3)c3ccc(c(Cl)c3)Oc3cc2cc(c3OC2OC(CO)C(O)C(O)C2OC2CC(C)(NCCCCC#Cc3ccccc3)C(O)C(C)O2)Oc2ccc(cc2Cl)C1O` (stereo not shown) [Compound 235], for which the MIC in test [1] was 0.125 mg/L (≈ 0.0715 µM); in test [2] it was 0.5 mg/L (≈ 0.286 µM); in test [4], 8 mg/L (≈ 4.57 µM); in test [5], 0.5 mg/L (≈ 0.286 µM); in test [6], at most 0.06 mg/L; in test [7], 1 mg/L (≈ 0.572 µM). In addition, the MIC in [8] is 1 mg/L (≈ 0.572 µM); in test [9], at most 0.06 mg/L; in test [10], 0.5 mg/L (≈ 0.286 µM); in [11], 0.5 mg/L (≈ 0.286 µM); in test [21] it was 0.5 mg/L (≈ 0.286 µM); in [12] it was 0.5 mg/L (≈ 0.286 µM). For the same compound, the MIC in test [13] is 0.125 mg/L (≈ 0.0715 µM); in test [14] it was at most 0.06 mg/L; in test [15], 0.125 mg/L (≈ 0.0715 µM); in [22], 0.5 mg/L (≈ 0.286 µM); in test [17] it was at most 0.06 mg/L; in test [18], at most 0.06 mg/L. Moreover, the MIC in [23] stood at 0.125 mg/L (≈ 0.0715 µM). Also, the “mean geometric MIC, Vancomycin Resistant Strains” value in test [20] came to 2.4 mg/L.
